Like-named read-outs stand apart in the source and are kept apart here.
Legend:
[1] = tested on: Mycosphaerella graminicola (Anamorph: Septoria tritici; Bayer Code SEPTTR); test: Fungicidal activity: Leaf Blotch of Wheat (SEPTTR), wheat seedlings in greenhouse; assay type: in vivo; parameters: key to Disease Control SEPTTR 1DP: A: 80-100; B: More than 0—Less than 80; C: Not Tested; D: No activity noticed in this bioassay; conditions: wheat (variety Yuma); for pest or weed control at 50 ppm: Zymoseptoria tritici
Method: (§1) Technical grades of materials were dissolved in acetone, which were then mixed with nine volumes of water containing 110 ppm Triton X-100. The fungicide solutions were applied onto wheat seedlings using an automated booth sprayer to run-off. All sprayed plants were allowed to air dry prior to further handling. Wheat plants (variety Yuma) were grown from seed in a greenhouse in 50% mineral soil/50% soil-less Metro mix until the first leaf was fully emerged, with 7-10 seedlings per pot. These plants were inoculated with an aqueous spore suspension of Septoria tritici either prior to or after fungicide treatments. After inoculation the plants were kept in 100% relative humidity (one day in a dark dew chamber followed by two to three days in a lighted dew chamber at 20° C.) to permit spores to germinate and infect the leaf. The plants were then transferred to a greenhouse set at 20° C. for disease to develop. When disease symptoms were fully expressed on the 1st leaves of untreated plants, infection levels were assessed on a scale of 0 to 100 percent disease severity. Percent disease control was calculated using the ratio of disease severity on treated plants relative to untreated plants.

[2] = tested on: Puccinia triticina (Synonym: Puccinia recondita f sp. tritici; Bayer Code PUCCRT); test: Fungicidal activity: Wheat Brown Rust (PUCCRT), wheat seedlings in greenhouse; assay type: in vivo; conditions: wheat (variety Yuma)
Method: Technical grades of materials were dissolved in acetone, which were then mixed with nine volumes of water containing 110 ppm Triton X-100. The fungicide solutions were applied onto wheat seedlings using an automated booth sprayer to run-off. All sprayed plants were allowed to air dry prior to further handling.
as §1, with “Wheat” for “Technical grades of materials were dissolved in acetone, which were then mixed with nine volumes of water containing 110 ppm Triton X-100. The fungicide solutions were applied onto wheat seedlings using an automated booth sprayer to run-off. All sprayed plants were allowed to air dry prior to further handling. Wheat”
Wheat plants (variety Yuma) were grown from seed in a greenhouse in 50% mineral soil/50% soil-less Metro mix until the first leaf was fully emerged, with 7-10 seedlings per pot. These plants were inoculated with an aqueous spore suspension of Puccinia triticina either prior to or after fungicide treatments. After inoculation the plants were kept in a dark dew room at 22° C. with 100% relative humidity overnight to permit spores to germinate and infect the leaf. The plants were then transferred to a greenhouse set at 24° C. for disease to develop. Fungicide formulation, application and disease assessment followed the procedures as described in Example 18.

[3] = 1DP, read-out: Disease Control SEPTTR 1DP
[4] = 3DC, read-out: Disease Control SEPTTR 3DC
[5] = 1DC, read-out: Disease Control PUCCRT 1DC
[6] = 1DP, read-out: Disease Control PUCCRT 1DP

Structure (SMILES): OC(Cn1nn[nH]c1=S)(c1ccc(F)cc1F)C(F)(F)c1ccc(OCC(F)(F)F)cn1 (centres unmarked) [Compound F5]
- pest or weed control at 50 ppm [1, 3]: 80 to 100%
- pest or weed control at 50 ppm [1, 4]: 80 to 100%
- pest or weed control at 50 ppm [2, 5]: 80 to 100%
- pest or weed control at 50 ppm [2, 6]: 80 to 100%

Structure (SMILES): CCSc1nnnn1CC(O)(c1ccc(F)cc1F)C(F)(F)c1ccc(Oc2ccc(C#N)cc2)cn1 (centres unmarked) [Compound F7]
- pest or weed control at 50 ppm [1, 3]: 0 to 80%
- pest or weed control at 50 ppm [1, 4]: 80 to 100%
- pest or weed control at 50 ppm [2, 5]: 80 to 100%
- pest or weed control at 50 ppm [2, 6]: 80 to 100%

Structure (SMILES): N#Cc1ccc(Oc2ccc(C(F)(F)C(O)(Cn3nnnc3SCC3CC3)c3ccc(F)cc3F)nc2)cc1 (centres unmarked) [Compound F13]
- pest or weed control at 50 ppm [1, 3]: 80 to 100%
- pest or weed control at 50 ppm [1, 4]: 80 to 100%
- pest or weed control at 50 ppm [2, 6]: 80 to 100%

Structure (SMILES): N#Cc1ccc(Oc2ccc(C(F)(F)C(O)(Cn3nnnc3SCc3ccccc3)c3ccc(F)cc3F)nc2)cc1 (centres unmarked) [Compound F12]
- pest or weed control at 50 ppm [1, 3]: 0 to 80%
- pest or weed control at 50 ppm [1, 4]: 80 to 100%
- pest or weed control at 50 ppm [2, 6]: 80 to 100%

Structure (SMILES): NC(=S)c1ccc(Oc2ccc(C(F)(F)C(O)(Cn3nn[nH]c3=S)c3ccc(F)cc3F)nc2)cc1 (centres unmarked) [Compound F1, 4-((6-(2-(2,4-difluorophenyl)-1,1-difluoro-2-hydroxy-3-(5-thioxo-4,5-dihydro-1H-tetrazol-)propyl)pyridin-3-yl)oxy)benzothioamide]
- pest or weed control at 50 ppm [1, 3]: 80 to 100%
- pest or weed control at 50 ppm [1, 4]: 80 to 100%
- pest or weed control at 50 ppm [2, 5]: 80 to 100%
- pest or weed control at 50 ppm [2, 6]: 80 to 100%
- melting point: 214 to 218 °C

Structure (SMILES): OC(Cn1nn[nH]c1=S)(c1ccc(F)cc1F)C(F)(F)c1ccc(COC(F)F)cn1 (centres unmarked) [Compound F9]
- pest or weed control at 50 ppm [1, 3]: 80 to 100%
- pest or weed control at 50 ppm [1, 4]: 80 to 100%
- pest or weed control at 50 ppm [2, 5]: 80 to 100%
- pest or weed control at 50 ppm [2, 6]: 80 to 100%

Structure (SMILES): OC(Cn1nn[nH]c1=S)(c1ccc(F)cc1F)C(F)(F)c1ccc(Oc2ccc(Cl)cn2)cn1 (centres unmarked) [Compound F4]
- pest or weed control at 50 ppm [1, 3]: 80 to 100%
- pest or weed control at 50 ppm [1, 4]: 80 to 100%
- pest or weed control at 50 ppm [2, 5]: 80 to 100%
- pest or weed control at 50 ppm [2, 6]: 80 to 100%

Structure (SMILES): CSc1nnnn1CC(O)(c1ccc(F)cc1F)C(F)(F)c1ccc(Oc2ccc(C#N)cc2)cn1 (centres unmarked) [Compound F11, 4-((6-(2-(2,4-difluorophenyl)-1,1-difluoro-2-hydroxy-3-(5-(methylthio)-1H-tetrazol-1-yl)propyl)pyridin-3-yl)oxy)benzonitrile]
- pest or weed control at 50 ppm [1, 3]: 80 to 100%
- pest or weed control at 50 ppm [1, 4]: 80 to 100%
- pest or weed control at 50 ppm [2, 6]: 80 to 100%

Structure (SMILES): N#Cc1ccc(Oc2ccc(C(F)(F)C(O)(Cn3nn[nH]c3=S)c3ccc(F)cc3F)nc2)nc1 (centres unmarked) [Compound F3]
- pest or weed control at 50 ppm [1, 3]: 80 to 100%
- pest or weed control at 50 ppm [1, 4]: 0 to 80%
- pest or weed control at 50 ppm [2, 5]: 80 to 100%
- pest or weed control at 50 ppm [2, 6]: 80 to 100%

Structure (SMILES): OC(Cn1nn[nH]c1=S)(c1ccc(F)cc1F)C(F)(F)c1ccc(OC2CC2(F)F)cn1 (centres unmarked) [Compound F10]
- pest or weed control at 50 ppm [1, 3]: 80 to 100%
- pest or weed control at 50 ppm [1, 4]: 80 to 100%
- pest or weed control at 50 ppm [2, 5]: 80 to 100%
- pest or weed control at 50 ppm [2, 6]: 80 to 100%
- melting point: 53 to 57 °C

Structure (SMILES): CSc1nnnn1CC(O)(c1ccc(F)cc1F)C(F)(F)c1ccc(Br)cn1 (centres unmarked) [Compound F6, 1-(5-bromopyridin-2-yl)-2-(2,4-difluorophenyl)-1,1-difluoro-3-(5-(methylthio)-1H-tetrazol-1-yl)propan-2-ol]
- Disease Control SEPTTR 1DP ([1]; 50 ppm, 1DP): D
- pest or weed control at 50 ppm [1, 4]: 0 to 80%
- pest or weed control at 50 ppm [2, 5]: 80 to 100%
- pest or weed control at 50 ppm [2, 6]: 0 to 80%

Structure (SMILES): OC(Cn1nn[nH]c1=S)(c1ccc(F)cc1F)C(F)(F)c1ccc(Oc2ccc(C(F)(F)F)cn2)cn1 (centres unmarked) [Compound F8]
- pest or weed control at 50 ppm [1, 3]: 80 to 100%
- pest or weed control at 50 ppm [1, 4]: 80 to 100%
- pest or weed control at 50 ppm [2, 5]: 80 to 100%
- pest or weed control at 50 ppm [2, 6]: 80 to 100%

Structure (SMILES): N#Cc1ccc(Oc2ccc(C(F)(F)C(O)(Cn3nn[nH]c3=S)c3ccc(F)cc3F)nc2)cc1 (centres unmarked) [Compound F2, 4-((6-(2-(2,4-difluorophenyl)-1,1-difluoro-2-hydroxy-3-(5-thioxo-4,5-dihydro-1H-tetrazol-)propyl)pyridin-3-yl)oxy)benzonitrile]
- pest or weed control at 50 ppm [1, 3]: 80 to 100%
- pest or weed control at 50 ppm [1, 4]: 80 to 100%
- pest or weed control at 50 ppm [2, 6]: 80 to 100%
